Experimental data from publication PMC11420776 (RSC Advances, 2024).

Tests used:
OVCAR-5 (ovarian cancer) = assay: NCI 60-cell one-dose antiproliferative screen; format: cell-based, human; conditions: one dose 10 μM
A498 (renal cancer) = assay: NCI 60-cell one-dose antiproliferative screen; format: cell-based, human; conditions: one dose 10 μM
UACC-257 (melanoma) = assay: NCI 60-cell one-dose antiproliferative screen; format: cell-based, human; conditions: one dose 10 μM
TK-10 (renal cancer) = assay: NCI 60-cell one-dose antiproliferative screen; format: cell-based, human; conditions: one dose 10 μM
ACHN (renal cancer) = assay: NCI 60-cell one-dose antiproliferative screen; format: cell-based, human; conditions: one dose 10 μM
HCT-116 (colon cancer) = assay: NCI 60-cell one-dose antiproliferative screen; format: cell-based, human; conditions: one dose 10 μM
OVCAR-4 (ovarian cancer) = assay: NCI 60-cell one-dose antiproliferative screen; format: cell-based, human; conditions: one dose 10 μM
HT29 (colon cancer) = assay: NCI 60-cell one-dose antiproliferative screen; format: cell-based, human; conditions: one dose 10 μM
786-0 (renal cancer) = assay: NCI 60-cell one-dose antiproliferative screen; format: cell-based, human; conditions: one dose 10 μM
[1] = tested on: NCI-H322M (NSC lung cancer); assay: NCI 60-cell one-dose antiproliferative screen; format: cell-based, human; conditions: one dose 10 μM
UO-31 (renal cancer) = assay: NCI 60-cell one-dose antiproliferative screen; format: cell-based, human; conditions: one dose 10 μM
SW-620 (colon cancer) = assay: NCI 60-cell one-dose antiproliferative screen; format: cell-based, human; conditions: one dose 10 μM
[2] = tested on: A549/ATCC (NSC lung cancer); assay: NCI 60-cell one-dose antiproliferative screen; format: cell-based, human; conditions: one dose 10 μM
T-47D (breast cancer) = assay: NCI 60-cell one-dose antiproliferative screen; format: cell-based, human; conditions: one dose 10 μM
U251 (CNS cancer) = assay: NCI 60-cell one-dose antiproliferative screen; format: cell-based, human; conditions: one dose 10 μM
SF-268 (CNS cancer) = assay: NCI 60-cell one-dose antiproliferative screen; format: cell-based, human; conditions: one dose 10 μM
[3] = tested on: NCI-H522 (NSC lung cancer); assay: NCI 60-cell one-dose antiproliferative screen; format: cell-based, human; conditions: one dose 10 μM
MDA-MB-435 (melanoma) = assay: NCI 60-cell one-dose antiproliferative screen; format: cell-based, human; conditions: one dose 10 μM
CCRF-CEM (leukemia) = assay: NCI 60-cell one-dose antiproliferative screen; format: cell-based, human; conditions: one dose 10 μM
SN12C (renal cancer) = assay: NCI 60-cell one-dose antiproliferative screen; format: cell-based, human; conditions: one dose 10 μM
EKVX (NSC lung cancer) = assay: NCI 60-cell one-dose antiproliferative screen; format: cell-based, human; conditions: one dose 10 μM
[4] = tested on: NCI-H23 (NSC lung cancer); assay: NCI 60-cell one-dose antiproliferative screen; format: cell-based, human; conditions: one dose 10 μM
SNB-75 (CNS cancer) = assay: NCI 60-cell one-dose antiproliferative screen; format: cell-based, human; conditions: one dose 10 μM
DU-145 (prostate cancer) = assay: NCI 60-cell one-dose antiproliferative screen; format: cell-based, human; conditions: one dose 10 μM
HCT-15 (colon cancer) = assay: NCI 60-cell one-dose antiproliferative screen; format: cell-based, human; conditions: one dose 10 μM
RPMI-8226 (leukemia) = assay: NCI 60-cell one-dose antiproliferative screen; format: cell-based, human; conditions: one dose 10 μM
SF-295 (CNS cancer) = assay: NCI 60-cell one-dose antiproliferative screen; format: cell-based, human; conditions: one dose 10 μM
[5] = tested on: NCI/ADR-RES (ovarian cancer); assay: NCI 60-cell one-dose antiproliferative screen; format: cell-based, human; conditions: one dose 10 μM
SNB-19 (CNS cancer) = assay: NCI 60-cell one-dose antiproliferative screen; format: cell-based, human; conditions: one dose 10 μM
M14 (melanoma) = assay: NCI 60-cell one-dose antiproliferative screen; format: cell-based, human; conditions: one dose 10 μM
LOX IMIV (melanoma) = assay: NCI 60-cell one-dose antiproliferative screen; format: cell-based, human; conditions: one dose 10 μM
MCF7 (breast cancer) = assay: NCI 60-cell one-dose antiproliferative screen; format: cell-based, human; conditions: one dose 10 μM
[6] = tested on: MDA-MB-468 (breast cancer); assay: NCI 60-cell one-dose antiproliferative screen; format: cell-based, human; conditions: one dose 10 μM
IGROV1 (ovarian cancer) = assay: NCI 60-cell one-dose antiproliferative screen; format: cell-based, human; conditions: one dose 10 μM
UACC-62 (melanoma) = assay: NCI 60-cell one-dose antiproliferative screen; format: cell-based, human; conditions: one dose 10 μM
RXF 393 (renal cancer) = assay: NCI 60-cell one-dose antiproliferative screen; format: cell-based, human; conditions: one dose 10 μM
CAKI-1 (renal cancer) = assay: NCI 60-cell one-dose antiproliferative screen; format: cell-based, human; conditions: one dose 10 μM
OVCAR-3 (ovarian cancer) = assay: NCI 60-cell one-dose antiproliferative screen; format: cell-based, human; conditions: one dose 10 μM
HCC-2998 (colon cancer) = assay: NCI 60-cell one-dose antiproliferative screen; format: cell-based, human; conditions: one dose 10 μM
HOP-92 (NSC lung cancer) = assay: NCI 60-cell one-dose antiproliferative screen; format: cell-based, human; conditions: one dose 10 μM
PC-3 (prostate cancer) = assay: NCI 60-cell one-dose antiproliferative screen; format: cell-based, human; conditions: one dose 10 μM
COLO-205 (colon cancer) = assay: NCI 60-cell one-dose antiproliferative screen; format: cell-based, human; conditions: one dose 10 μM
SK-MEL-28 (melanoma) = assay: NCI 60-cell one-dose antiproliferative screen; format: cell-based, human; conditions: one dose 10 μM
SK-MEL-2 (melanoma) = assay: NCI 60-cell one-dose antiproliferative screen; format: cell-based, human; conditions: one dose 10 μM
MALME-3M (melanoma) = assay: NCI 60-cell one-dose antiproliferative screen; format: cell-based, human; conditions: one dose 10 μM
HOP-62 (NSC lung cancer) = assay: NCI 60-cell one-dose antiproliferative screen; format: cell-based, human; conditions: one dose 10 μM
HS 578T (breast cancer) = assay: NCI 60-cell one-dose antiproliferative screen; format: cell-based, human; conditions: one dose 10 μM
SK-OV-3 (ovarian cancer) = assay: NCI 60-cell one-dose antiproliferative screen; format: cell-based, human; conditions: one dose 10 μM
OVCAR-8 (ovarian cancer) = assay: NCI 60-cell one-dose antiproliferative screen; format: cell-based, human; conditions: one dose 10 μM
[7] = tested on: NCI-H460 (NSC lung cancer); assay: NCI 60-cell one-dose antiproliferative screen; format: cell-based, human; conditions: one dose 10 μM
KM12 (colon cancer) = assay: NCI 60-cell one-dose antiproliferative screen; format: cell-based, human; conditions: one dose 10 μM
[8] = tested on: 60 human tumor cell lines; assay: NCI 60-cell one-dose antiproliferative screen, whole panel; format: cell-based; conditions: Homo sapiens, 60 cell, read-out: Mean inhibition (mean GI%)
[9] = tested on: MDA-MB-231/ATCC (breast cancer); assay: NCI 60-cell one-dose antiproliferative screen; format: cell-based, human; conditions: one dose 10 μM
[10] = tested on: NCI-H226 (NSC lung cancer); assay: NCI 60-cell one-dose antiproliferative screen; format: cell-based, human; conditions: one dose 10 μM
SF-539 (CNS cancer) = assay: NCI 60-cell one-dose antiproliferative screen; format: cell-based, human; conditions: one dose 10 μM

COc1ccc(-c2nnc3ccc(NN=Cc4ccccc4)nn23)cc1 [Compound 4e, 6-(2-Benzylidenehydrazinyl)-3-(4-methoxyphenyl)-[1,2,4]triazolo[4,3-b]pyridazine]
GI% (OVCAR-5 (ovarian cancer)): — (— GI% is below 15%) | GI% (A498 (renal cancer)): — (— GI% is below 15%) | GI% (UACC-257 (melanoma)): — (— GI% is below 15%) | GI% (TK-10 (renal cancer)): — (— GI% is below 15%) | GI% (ACHN (renal cancer)): — (— GI% is below 15%) | GI% (HCT-116 (colon cancer)): — (— GI% is below 15%) | GI% (OVCAR-4 (ovarian cancer)): — (— GI% is below 15%) | GI% (HT29 (colon cancer)): — (— GI% is below 15%) | GI% (786-0 (renal cancer)): — (— GI% is below 15%) | GI% [1]: — (— GI% is below 15%) | GI% (UO-31 (renal cancer)): — (— GI% is below 15%) | GI% (SW-620 (colon cancer)): — (— GI% is below 15%) | GI% [2]: 21.90% | GI% (T-47D (breast cancer)): — (— GI% is below 15%) | GI% (U251 (CNS cancer)): 22.16% | GI% (SF-268 (CNS cancer)): — (— GI% is below 15%) | GI% [3]: — (— GI% is below 15%) | GI% (MDA-MB-435 (melanoma)): — (— GI% is below 15%) | GI% (CCRF-CEM (leukemia)): — (— GI% is below 15%) | GI% (SN12C (renal cancer)): — (— GI% is below 15%) | GI% (EKVX (NSC lung cancer)): — (— GI% is below 15%) | GI% [4]: — (— GI% is below 15%) | GI% (SNB-75 (CNS cancer)): 62.97% | GI% (DU-145 (prostate cancer)): — (— GI% is below 15%) | GI% (HCT-15 (colon cancer)): — (— GI% is below 15%) | GI% (RPMI-8226 (leukemia)): — (— GI% is below 15%) | GI% (SF-295 (CNS cancer)): — (— GI% is below 15%) | GI% [5]: 30.10% | GI% (SNB-19 (CNS cancer)): 17.10% | GI% (M14 (melanoma)): — (— GI% is below 15%) | GI% (LOX IMIV (melanoma)): 29.87% | GI% (MCF7 (breast cancer)): 28.54% | GI% [6]: — (— GI% is below 15%) | GI% (IGROV1 (ovarian cancer)): — (— GI% is below 15%) | GI% (UACC-62 (melanoma)): — (— GI% is below 15%) | GI% (RXF 393 (renal cancer)): — (— GI% is below 15%) | GI% (CAKI-1 (renal cancer)): — (— GI% is below 15%) | GI% (OVCAR-3 (ovarian cancer)): — (— GI% is below 15%) | GI% (HCC-2998 (colon cancer)): — (— GI% is below 15%) | GI% (HOP-92 (NSC lung cancer)): 29.15% | GI% (PC-3 (prostate cancer)): — (— GI% is below 15%) | GI% (COLO-205 (colon cancer)): — (— GI% is below 15%) | GI% (SK-MEL-28 (melanoma)): — (— GI% is below 15%) | GI% (SK-MEL-2 (melanoma)): — (— GI% is below 15%) | GI% (MALME-3M (melanoma)): — (— GI% is below 15%) | GI% (HOP-62 (NSC lung cancer)): — (— GI% is below 15%) | GI% (HS 578T (breast cancer)): 17.35% | GI% (SK-OV-3 (ovarian cancer)): — (— GI% is below 15%) | GI% (OVCAR-8 (ovarian cancer)): 34.25% | GI% [7]: — (— GI% is below 15%) | GI% (KM12 (colon cancer)): — (— GI% is below 15%) | inhibition at 10 µM [8]: 7.15% | GI% [9]: 34.41% | GI% [10]: 42.42% | GI% (SF-539 (CNS cancer)): 17.17%
